Consider two sequences from US7842294B2, “Proteins belonging to the Bcl-2 family and fragments thereof, and their use in cancer patients” (Survac APS, priority 2003, dated 2010).

Data set [1] deals with antigen-specific CTL in PBL. The experiment in a line: Granzyme B (GrB) ELISPOT. Type of data set: cell-based, human. As to the method:
The Granzyme B (GrB) ELISPOT assay was used for measuring antigen-specific CTL cytotoxicity as described. Briefly, nitrocellulose bottomed 96-well plates (MultiScreen MAIP N45, Millipore) were coated with GrB Capture Antibody (BD Biosciences, Brondby, Denmark). The wells were washed and blocked by X-vivo medium with 5% human serum. The cells were added at different cell concentrations. T2 cells and peptides were then added to each well and the plates were incubated 4 hours, medium was discarded and the wells were washed prior to addition of GrB Detection Antibody (BD Biosciences). The plates were incubated for 2 hours, washed and Avidin horseradish peroxidase (BD Biosciences) was added to each well. Plates were incubated at RT for 1 hour AEC Substrate Reagent (BD Biosciences) was added to each well and incubated at RT for 5-10 min. The reaction was terminated by washing with tap-water upon the emergency of red spots. The spots were counted and the peptide specific CTL frequency was calculated like for the INF-γ ELISPOT. All assays were performed in duplicate or triplicates for each peptide antigen.

The subject of a further data set is T2 cells. The data set can be described thus: 51Cr-release cytotoxicity assay with bcl208-isolated T cells. Type of data set: cell-based, human. The settings on record: bcl208 reactive T cells enriched from a breast cancer patient, day 5.
Data set [2] has as its system HLA-A2 positive breast cancer cell line MDA-MB-231. The description is as above. Type of data set: cell-based, human. The settings on record: enriched bcl208 reactive T cells, Bcl-2 expressing.
The subject of data set [3] is peptide epitope-specific interferon-γ releasing effector cells in PBL. The experiment in a line: IFN-γ ELISPOT on PBL stimulated once in vitro with peptide. Format: cell-based, human. The settings on record: for healthy individuals with CTL response: 12 healthy HLA-A2 positive individuals. As to the method: To extend the sensitivity of the ELISPOT assay, PBL were stimulated once in vitro prior to analysis. At day 0, PBL or crushed lymph nodes were thawed and plated in 2 ml/well at a concentration of 2×10^6 cells in 24-well plates (Nunc, Denmark) in X-vivo medium (Bio Whittaker, Walkersville, Md.), 5% heat-inactivated human serum, and 2 mM of L-glutamine in the presence of 10 μM of peptide. Two days later 20 IU/ml recombinant interleukin-2 (IL-2) (Chiron, Ratingen, Germany) was added to the cultures. The cultured cells were tested for reactivity in the ELISPOT on day 12.
The ELISPOT assay was used to quantify peptide epitope-specific interferon-γ releasing effector cells as described previously (4). Briefly, nitrocellulose bottomed 96-well plates (MultiScreen MAIP N45, Millipore, Hedehusene, Denmark) were coated with anti-IFN-γ antibody (1-D1K, Mabtech, Nacka, Sweden). The wells were washed, blocked by X-vivo medium, and cells added in duplicates at different cell concentrations. Peptides were then added to each well and the plates were incubated overnight. The following day, media was discarded and the wells were washed prior to addition of biotinylated secondary antibody (7-B6-1-Biotin, Mabtech). The plates were incubated for 2 hours, washed and Avidin-enzyme conjugate (AP-Avidin, Calbiochem, Life Technologies) was added to each well. Plates were incubated at RT for 1 hour and the enzyme substrate NBT/BCIP (Gibco, Life Technologies) was added to each well and incubated at RT for 5-10 min. The reaction was terminated by washing with tap-water upon the emergency of dark purple spots. The spots were counted using the ImmunoSpot® Series 2.0 Analyzer (CTL Analyzers, LLC, Cleveland, US) and the peptide specific CTL frequency could be calculated from the numbers of spot-forming cells. All assays were performed in triplicates for each peptide antigen.

The subject of data set [4] is HLA-A2 negative breast cancer cell line ZR75-1.
A further data set has as its target T1, HLA-A2 (Homo sapiens, UniProt P04439, D140Y/D185E/D98H/E176V/E277Q/G131W/G231S/I119V/I121R/I166T/I218V/L300P/L318F/N151K/N90K/P208A/P217A/Q86G/Q94H/R138H/R169H/T345S).
T1 construct: empty HLA molecules released upon cell lysis, from the TAP-deficient cell line T2; endogenous in cells; host or cells: T2 (TAP-deficient cell line), metabolically labelled with [35S]-methionine and lysed
The data set can be described thus: Assembly assay for peptide binding to MHC class I molecules (stabilisation of HLA from TAP-deficient T2 cells). The settings on record: recovery of HLA-A2 measured at 50, 5, 0.5, 0.05 μM peptide; read-out: C50 (concentration of the peptide required for half maximal binding to HLA-A2). As to the method:
This assembly assay is carried out as described previously (2), and it is based on stabilisation of the HLA molecule after loading of peptide to the peptide transporter deficient cell line T2. Subsequently, correctly folded stable HLA heavy chains are immunoprecipitated using conformation dependent antibodies and the peptide binding is quantitated.
The binding affinity of the synthetic peptides (Invitrogen, Carlsbad, Calif., USA) to HLA-A2 molecules, metabolically labelled with [^35S]-methionine, was measured in the assembly assay, as described previously. The assay is based on peptide-mediated stabilisation of empty HLA molecules released upon cell lysis, from the TAP-deficient cell line T2. Stably folded HLA-molecules were immune-precipitated using the HLA class I-specific, conformation-dependent mAb W6/32, and separated by isoelectric focusing (IEF) gel electrophoresis. MHC heavy chain bands were quantified using the ImageGauge Phosphorimager program (FUJI photo film Co., Carrollton, Tex., USA). The intensity of the band is directly related to the amount of peptide-bound class I MHC complex recovered during the assay. Subsequently, the extent of stabilisation of HLA-A2 is directly related to the binding affinity of the added peptide. The recovery of HLA-A2 was measured in the presence of 50, 5, 0.5, 0.05 μM of the relevant peptide. The C50 value was calculated for each peptide as the peptide concentration sufficient for half maximal stabilisation.
The amino acid sequence of the Bcl-2 protein was screened for the most probable HLA-A2 nona- and decamer peptide epitopes, using the main HLA-A2 specific anchor residues (2). […] The assembly assay is based on stabilisation of the class I molecule after loading of different concentrations of peptide to the TAP-deficient cell line T2. Subsequently correctly folded stable MHC heavy chains are immunoprecipitated using conformation-dependent antibodies.

In the next data set the test system is CD8+ T cells from PBL. The experiment in a line: FACS analysis with Pro5 MHC pentamer staining. Format: cell-based, human. The settings on record: breast cancer patient no. 36, PBL stimulated once in vitro, HLA-A2/Bcl-XL173-182 pentamer. A general note: Flow cytometry measures light scatter and fluorescence of single cells or particles in a stream.
The mark [5] stands for this setting: PBL from 15 HLA-A2 positive breast cancer patients.

Ends that are not written are not given here.

As to PLFDFSWLSL [bcl208], the “GrB release in controls” value in data set [1] (breast cancer patient no. 16 and healthy control h1) was “no GrB release was detected”. Moreover, the “recognition of peptide-pulsed T2 cells by CTL clones (GrB ELISPOT)” value in data set [1] (clones from HLA-A2/bcl208 bead-isolated cells, data not shown) is reported as “Several of these clones showed specific recognition”. The “killing of T2 cells loaded with peptide versus unloaded” value with T2 cells is given as “only T2 cells pulsed with bcl208 were killed”. For the same sequence, the “lysis of MDA-MB-231 cells” value in data set [2] was “efficiently lysed”. In addition, the “healthy individuals with CTL response” value in data set [3] is listed as “one”. Also, in data set [3] (setting [5]), the “patients with spontaneous CTL response” value was “twelve” and the “patients with spontaneous CTL response (%)” value is “≈ 80%”. In addition, the “CLL patients with Bcl-2 response” value in data set [3] (ten HLA-A2 positive CLL patients, reactivity against bcl208 and bcl214, not broken down by peptide) is “five”. The “AML patients with Bcl-2 response” value in data set [3] (three AML patients, reactivity against bcl208 and bcl214, not broken down by peptide) is “two”. Further, the “pancreatic cancer patients with CTL response” value in data set [3] (two HLA-A2 positive pancreatic cancer patients) is “both”. Further, the “cytotoxicity against ZR75-1 cells” value in data set [4] is on record as “no cytotoxicity was observed”. In addition, at HLA-A2, the EC50 was found to be 7 µM.
As to “YLNDHLEPWI (Peptide derived from Bcl-XL) [Bcl-XL173-182]”, the “pentamer positive T cells among CD8+ T cells” value with CD8+ T cells from PBL came to 0.24%. For the same sequence, the “frequency of peptide specific CTL (GrB ELISPOT)” value in data set [1] (Bcl-XL reactive breast cancer patients no. 35 and 36) was 50-100 peptide specific CTL per 3×10^5 cells. In data set [1] (breast cancer patient no. 17), the “GrB release in control patient” value is “no GrB release was detected”. The “healthy individuals with CTL response” value in data set [3] is recorded as “no responses were detected”. Besides, the “CTL response in cancer patients of different origin (in words)” value in data set [3] (PBL from HLA-matched cancer patients) is “strong and frequent CTL responses”. In data set [3] (eighteen HLA-A2+ breast cancer patients, responder >25 spots per 10^5 cells), the “breast cancer patients hosting an immune response” value is “nine out of eighteen”. In addition, the “peptide specific, IFNγ secreting CD8+ T cells” value in data set [3] (same CD8+ culture of breast cancer patient no. 36) is given as “around 1.4%”. Further, the “melanoma patients hosting an immune response” value in data set [3] (six HLA-A2+ melanoma patients, responder >25 spots per 10^5 cells) is “two out of six”.
